Molecules are shown by their SMILES.

One may read the IC50 as the midpoint of a concentration-inhibition curve.

One assay concerns the target T1, human LTA4 hydrolase (Homo sapiens, UniProt P09960).
T1 sequence (P09960 1-611): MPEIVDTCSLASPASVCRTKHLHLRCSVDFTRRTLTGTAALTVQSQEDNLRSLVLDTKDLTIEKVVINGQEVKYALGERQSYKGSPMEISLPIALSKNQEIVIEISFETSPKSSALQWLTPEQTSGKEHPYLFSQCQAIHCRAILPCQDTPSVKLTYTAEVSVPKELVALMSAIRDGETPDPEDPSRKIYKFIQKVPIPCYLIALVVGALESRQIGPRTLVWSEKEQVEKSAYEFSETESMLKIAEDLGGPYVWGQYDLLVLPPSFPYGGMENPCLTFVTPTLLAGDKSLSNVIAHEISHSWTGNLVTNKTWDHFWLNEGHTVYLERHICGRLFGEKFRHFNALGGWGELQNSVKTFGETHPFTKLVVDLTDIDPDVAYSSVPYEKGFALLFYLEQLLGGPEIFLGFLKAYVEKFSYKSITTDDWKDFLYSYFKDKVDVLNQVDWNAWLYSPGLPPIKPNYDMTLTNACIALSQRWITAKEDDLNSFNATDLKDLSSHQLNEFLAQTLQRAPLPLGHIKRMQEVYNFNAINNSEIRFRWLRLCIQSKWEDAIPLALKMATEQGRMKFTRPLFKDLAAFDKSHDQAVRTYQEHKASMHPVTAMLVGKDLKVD
The assay is described as follows: LTA4H enzyme assay (cleavage of Arg-AMC, fluorescence). The settings on record: LTA4H enzyme 1 nM, Arg-AMC substrate 50 μM, room temperature 1 h. It counts as biochemical. Here is the method:
Compounds are assessed for the ability to interact with human LTA4 hydrolase in an enzymatic assay that measures the ability of the enzyme to cleave the peptide bond of arginyl-aminomethylcoumarin (Arg-AMC). LTA4H Enzyme (1 nM final), Arg-AMC substrate (50 μM final), and compound are combined in a reaction buffer (50 mM Tris-HCl (pH 7.5), 100 mM KCl, 0.5% bovine serum albumin) at room temperature for 1 h. The formation of product is assessed by measuring the fluorescence of aminomethylcoumarin product (excitation wavelength 380 nm/emission wavelength 460 nm).

Assay [1] relates to LTB4 production in human whole blood. Put plainly: LTB4 production inhibition assay in human whole blood (calcimycin-stimulated). The format is cell-based. The settings on record: heparinized human whole blood, 15 min 37° C., calcimycin 20 μM 30 min, plasma LTB4 by HTRF. As to the method:
Compounds of the invention are additionally tested in a human whole blood assay to determine their ability to inhibit the synthesis of LTB4 in a cellular system. Compounds are combined with heparinized human whole blood and incubated for 15 minutes at 37° C. Calcimycin (20 μM final, prepared in phosphate-buffered saline, pH 7.4) is then added and the mixture is incubated for another 30 minutes at 37° C. The samples are centrifuged for 5 min at low speed (1500×g) and the plasma layer is removed. Plasma LTB4 concentrations are then measured using an antibody-based homogenous time-resolved fluorescence method (CisBio, Bedford, Mass.).
Background: Time-resolved FRET reads energy transfer from a long-lived donor to a nearby acceptor.

Consider `c1ccc(COc2ccc(Oc3ccc(-c4ccn[nH]4)cc3)cc2)cc1` [Example 62, 5-{4-[4-(benzyloxy)phenoxy]phenyl}-1H-pyrazole], for which the IC50 on human LTA4 hydrolase was 142 nM; in assay [1], no less than 5000 nM.
In the case of `c1cc(-c2ccc(Oc3ccc(OCc4ccoc4)cc3)cc2)[nH]n1` [Example 63, 5-{4-[4-(3-furylmethoxy)phenoxy]phenyl}-1H-pyrazole], the IC50 on human LTA4 hydrolase was 52.9 nM; in assay [1] it was no less than 5000 nM.
With `c1ccc2sc(COc3ccc(Oc4ccc(-c5ccn[nH]5)cc4)cc3)nc2c1` [Example 64, 2-({4-[4-(1H-pyrazol-5-yl)phenoxy]phenoxy}methyl)-1,3-benzothiazole], the IC50 was 44.2 nM against human LTA4 hydrolase and no less than 5000 nM in assay [1].
On to `Cn1ccc(COc2ccc(Oc3ccc(-c4ccn[nH]4)cc3)cc2)n1` [Example 65, 1-methyl-3-({4-[4-(1H-pyrazol-5-yl)phenoxy]phenoxy}methyl)-1H-pyrazole], for which the IC50 is 12.9 nM against human LTA4 hydrolase and no less than 5000 nM in assay [1].
Consider `c1ccc(CCOc2ccc(Oc3ccc(-c4ccn[nH]4)cc3)cc2)cc1` [Example 66, 5-{4-[4-(2-phenylethoxy)phenoxy]phenyl}-1H-pyrazole], for which the results for the IC50 (against human LTA4 hydrolase; in assay [1]) were 959 nM and no less than 5000 nM, respectively.
As for `Cc1ncsc1CCOc1ccc(Oc2ccc(-c3ccn[nH]3)cc2)cc1` [Example 67, 4-Methyl-5-(2-{4-[4-(2H-pyrazol-3-yl)-phenoxy]-phenoxy}-ethyl)-thiazole], the figures for the IC50 (at human LTA4 hydrolase; in assay [1]) were 11.2 nM and no less than 5000 nM, respectively.
Regarding `c1csc(CCOc2ccc(Oc3ccc(-c4ccn[nH]4)cc3)cc2)c1` [Example 68, 5-(4-{4-[2-(2-thienyl)ethoxy]phenoxy}phenyl)-1H-pyrazole], the IC50 against human LTA4 hydrolase is 820 nM; in assay [1], no less than 5000 nM.
In the case of `c1cc(-c2ccc(Oc3ccc(OCc4ccsc4)cc3)cc2)[nH]n1` [Example 69, 5-{4-[4-(3-thienylmethoxy)phenoxy]phenyl}-1H-pyrazole], the IC50 against human LTA4 hydrolase was 65.3 nM; in assay [1] it was no less than 5000 nM.
For `c1cc(-c2ccc(Oc3ccc(OCc4cncs4)cc3)cc2)[nH]n1` [Example 70, 5-({4-[4-(1H-pyrazol-5-yl)phenoxy]phenoxy}methyl)-1,3-thiazole], the 50% inhibitory concentration (IC50) against human LTA4 hydrolase was found to be 4.9 nM; in assay [1], 2390 nM.
With `c1cc(-c2ccc(Oc3ccc(OCc4ccc5ncsc5c4)cc3)cc2)[nH]n1` [Example 71, 6-({4-[4-(1H-pyrazol-5-yl)phenoxy]phenoxy}methyl)-1,3-benzothiazole], the IC50 on human LTA4 hydrolase is 59.5 nM; in assay [1] it was no less than 5000 nM.
Regarding `c1cc(-c2ccc(Oc3ccc(OCCc4cnoc4)cc3)cc2)[nH]n1` [Example 72, 4-(2-{4-[4-(1H-pyrazol-5-yl)phenoxy]phenoxy}ethyl)isoxazole], the IC50 against human LTA4 hydrolase came to 6.1 nM; in assay [1], 2550 nM.
`c1cc(-c2ccc(Oc3ccc(OCc4nccs4)cc3)cc2)[nH]n1` [Example 73, 2-({4-[4-(1H-pyrazol-5-yl)phenoxy]phenoxy}methyl)-1,3-thiazole]: the results for the IC50 (against human LTA4 hydrolase; in assay [1]) were 10.4 nM and 4100 nM, respectively.
Regarding `Cc1ncoc1COc1ccc(Oc2ccc(-c3ccn[nH]3)cc2)cc1` [Example 74, 4-methyl-5-({4-[4-(1H-pyrazol-5-yl)phenoxy]phenoxy}methyl)-1,3-oxazole], the IC50 was 17.9 nM at human LTA4 hydrolase and 2550 nM in assay [1].
The like results for `c1cnc(COc2ccc(Oc3ccc(-c4ccn[nH]4)cc3)cc2)nc1` [Example 75, 2-({4-[4-(1H-pyrazol-5-yl)phenoxy]phenoxy}methyl)pyrimidine] were, in that order, 6.6 nM and 2840 nM.
For `c1cc(-c2ccc(Oc3ccc(OCc4ccc5nccn5c4)cc3)cc2)[nH]n1` [Example 76, 6-({4-[4-(1H-pyrazol-5-yl)phenoxy]phenoxy}methyl)imidazo[1,2-a]pyridine], the IC50 was 0.9 nM against human LTA4 hydrolase and 1420 nM in assay [1].
In the case of `Cc1nnsc1COc1ccc(Oc2ccc(-c3ccn[nH]3)cc2)cc1` [Example 77, 4-Methyl-5-{4-[4-(2H-pyrazol-3-yl)-phenoxy]-phenoxymethyl}-[1,2,3]thiadiazole], the IC50 on human LTA4 hydrolase is 1 nM; in assay [1] it was 492 nM.
With `c1cc(-c2ccc(Oc3ccc(OCc4cnco4)cc3)cc2)[nH]n1` [Example 78, 5-({4-[4-(1H-pyrazol-5-yl)phenoxy]phenoxy}methyl)-1,3-oxazole], the IC50 at human LTA4 hydrolase came to 2.8 nM; in assay [1], 1650 nM.
In the case of `CC(COc1ccc(Oc2ccc(-c3ccn[nH]3)cc2)cc1)Cn1cccn1` (stereo not drawn) [Example 79, 1-(2-methyl-3-{4-[4-(1H-pyrazol-5-yl)phenoxy]phenoxy}propyl)-1H-pyrazole], the figures for the IC50 (against human LTA4 hydrolase; in assay [1]) were 2.7 nM and 2110 nM, respectively.
Take `c1cnn(-c2ccc(COc3ccc(Oc4ccc(-c5ccn[nH]5)cc4)cc3)cn2)c1` [Example 80, 2-(1H-pyrazol-1-yl)-5-({4-[4-(1H-pyrazol-5-yl)phenoxy]phenoxy}methyl)pyridine]: the IC50 against human LTA4 hydrolase came to 1.9 nM; in assay [1] it was 1650 nM.
The like results for `c1cc(-c2ccc(Oc3ccc(OCc4ccc5[nH]cnc5c4)cc3)cc2)[nH]n1` [Example 81, 5-({4-[4-(1H-pyrazol-5-yl)phenoxy]phenoxy}methyl)-1H-benzimidazole] were, in that order, 14.2 nM and no less than 5000 nM.
On to `c1cc(-c2ccc(Oc3ccc(OCCC4CCOCC4)cc3)cc2)[nH]n1` [Example 82, 5-(4-{4-[2-(tetrahydro-2H-pyran-4-yl)ethoxy]phenoxy}phenyl)-1H-pyrazole], for which the results for the IC50 (against human LTA4 hydrolase; in assay [1]) were 7.9 nM and 2670 nM, respectively.
In the case of `c1cc(-c2ccc(Oc3ccc(OCC4CCCOC4)cc3)cc2)[nH]n1` (stereo not drawn) [Example 83, 5-{4-[4-(tetrahydro-2H-pyran-3-ylmethoxy)phenoxy]phenyl}-1H-pyrazole], the IC50 on human LTA4 hydrolase stood at 2.9 nM; in assay [1], 1740 nM.
The like results for `c1cc(-c2ccc(Oc3ccc(OCC4CCOCC4)cc3)cc2)[nH]n1` [Example 84, 5-{4-[4-(tetrahydro-2H-pyran-4-ylmethoxy)phenoxy]phenyl}-1H-pyrazole] were, in that order, 4.6 nM and 1460 nM.
In the case of `O=C1CC[C@H](COc2ccc(Oc3ccc(-c4ccn[nH]4)cc3)cc2)O1` [Example 85, (5R)-5-({4-[4-(1H-pyrazol-5-yl)phenoxy]phenoxy}methyl)dihydrofuran-2(3H)-one], the values for the IC50 (on human LTA4 hydrolase; in assay [1]) were 0.8 nM and no less than 5000 nM, respectively.
As for `O=C1CC[C@@H](COc2ccc(Oc3ccc(-c4ccn[nH]4)cc3)cc2)O1` [Example 86, (5S)-5-({4-[4-(1H-pyrazol-5-yl)phenoxy]phenoxy}methyl)dihydrofuran-2(3H)-one], the figures for the IC50 (on human LTA4 hydrolase; in assay [1]) were 0.8 nM and 4500 nM, respectively.
As for `O=C1OCC[C@@H]1Oc1ccc(Oc2ccc(-c3ccn[nH]3)cc2)cc1` [Example 87, (3S)-3-{4-[4-(1H-pyrazol-5-yl)phenoxy]phenoxy}dihydrofuran-2(3H)-one], the values for the IC50 (against human LTA4 hydrolase; in assay [1]) were 23.1 nM and no less than 5000 nM, respectively.
In the case of `O=C1OCC[C@H]1Oc1ccc(Oc2ccc(-c3ccn[nH]3)cc2)cc1` [Example 88, (3R)-3-{4-[4-(1H-pyrazol-5-yl)phenoxy]phenoxy}dihydrofuran-2(3H)-one], the values for the IC50 (on human LTA4 hydrolase; in assay [1]) were 16.4 nM and no less than 5000 nM, respectively.

Values taken from patent US9139567B2, “Arylpyrazole ethers as inhibitors of leukotriene A4 hydrolase” (Boehringer Ingelheim International GmbH, priority 2011, dated 2015).
